The values below come from paper PMC3295836 (Bioorganic & medicinal chemistry letters, 2012).

A word on the Cmax: it is the peak of the concentration-time curve.

Values joined by “and” are separate entries in the source; they are usually repeats but may differ in a detail not shown here. Equal values may be shown once.

For data set [1], the target named is anthrax lethal factor (LF) (Bacillus anthracis, UniProt P15917). The class given is biochemical.
For data set [2] the following is noted: t = 30 min.
Data set [3] relates to anthrax lethal toxin (LT; PA + LF). On the set-up: species or system Fischer 344 rats. Conditions: rat, in vivo.
Another data set is described as follows: in vivo. The following applies: NZW, rabbit, sc, 10 mg/kg.

Chain of anthrax lethal factor (LF) (P15917 34-809 limits assumed): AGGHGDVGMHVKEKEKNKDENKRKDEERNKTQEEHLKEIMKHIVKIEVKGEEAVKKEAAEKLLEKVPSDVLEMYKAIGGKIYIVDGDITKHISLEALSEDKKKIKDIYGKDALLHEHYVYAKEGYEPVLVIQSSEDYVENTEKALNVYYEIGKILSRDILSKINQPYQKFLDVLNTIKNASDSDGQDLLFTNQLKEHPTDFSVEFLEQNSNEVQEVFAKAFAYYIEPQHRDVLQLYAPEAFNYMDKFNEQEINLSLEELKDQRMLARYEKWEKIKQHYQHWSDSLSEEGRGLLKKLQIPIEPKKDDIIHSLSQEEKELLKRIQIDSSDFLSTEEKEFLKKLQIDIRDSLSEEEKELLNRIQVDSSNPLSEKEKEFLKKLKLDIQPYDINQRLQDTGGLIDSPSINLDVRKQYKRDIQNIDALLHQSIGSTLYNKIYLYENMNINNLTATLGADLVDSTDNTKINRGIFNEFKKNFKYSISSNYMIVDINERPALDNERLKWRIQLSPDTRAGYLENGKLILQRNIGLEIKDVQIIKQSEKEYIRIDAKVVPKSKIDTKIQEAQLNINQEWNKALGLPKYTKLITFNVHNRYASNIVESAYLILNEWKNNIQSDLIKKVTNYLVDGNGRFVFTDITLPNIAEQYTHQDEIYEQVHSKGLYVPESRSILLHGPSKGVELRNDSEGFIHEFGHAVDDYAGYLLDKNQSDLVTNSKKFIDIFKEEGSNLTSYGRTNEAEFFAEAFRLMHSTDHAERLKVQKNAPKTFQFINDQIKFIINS

As to `CC[C@@H](NCCCC[C@@H](Cc1cc(C)c(F)c(C)c1)C(=O)NO)c1ccc(F)cc1` [LFI 11], the “difference in potency against LF between analogs” value in data set [1] was determined as 50 fold.
Consider `CCC(NCCCC[C@@H](Oc1cc(C)c(F)c(C)c1)C(=O)NO)c1ccc(F)cc1` (stereo partly shown) [LFI 19], for which the “M = microsome stability, percent of compound remaining” value in data set [2] was below 10%. Further, in data set [3], the “surv (number of survivors per group)” value was 1/3.
In the data set “in vivo”, `CCC(NCCCC[C@@H](C[C@@H](OC)c1ccc(F)cc1)C(=O)NO)c1ccc(F)cc1` (stereo partly shown) [LFI 20] showed a maximum concentration (Cmax) of 561 ng/mL.
Take `Cc1cc(N[C@H](CCCCNCc2ccc(F)cc2)C(=O)NO)cc(C)c1F` [LFI 1]: in data set [3], the “rMST = MST(LFI)/MST(controls)” value is reported as 16.8; the “surv (number of survivors per group)” value was 3/5 and 3/3.
As for `Cc1cc(O[C@H](CCCCNCc2ccc(F)cc2)C(=O)NO)cc(C)c1F` [LFI 3], in data set [3], the “rMST = MST(LFI)/MST(controls)” value was found to be 16.0 and the “surv (number of survivors per group)” value was 0/3.
For `CCC(NCCCC[C@@H](Cc1cc(C)c(F)c(C)c1)C(=O)NO)c1ccc(F)cc1` (stereo partly shown) [LFI 18], the “surv (number of survivors per group)” value in data set [3] is “protect all of the animals and 3/3 and 5/6”.
On to `Cc1cc(C[C@H](CCCCN[C@H](Cc2ccccc2)c2ccc(F)cc2)C(=O)NO)cc(C)c1F` [LFI 15], for which the “LF (FRET) KinM)” value in data set [1] was “sub-nanomolar”.
`CO[C@H](C[C@H](CCCCNCc1ccc(F)cc1)C(=O)NO)c1ccc(F)cc1` [LFI 4]: the “surv (number of survivors per group)” value in data set [3] is “one animal was lost”.
As for `Cc1cc(C[C@H](CCCCNCc2ccc(F)cc2)C(=O)NO)cc(C)c1F` [LFI 2], in data set [3], the “rMST = MST(LFI)/MST(controls)” value is recorded as 19.3; the “surv (number of survivors per group)” value was 1/3 and 3/3.
